Experimental data taken from patent publication US8333970B2, “Methods of monitoring the efficacy of anti-CD40 antibodies in treating a subject having an inflammatory or autoimmune disease” (Novartis AG, priority 2005, dated 2012).
Entries after “also recorded” stand apart in the source; their conditions may differ.

Key:
normal human B cells [1] = test: Western blot of apoptosis and survival proteins in sCD40L-stimulated B cells; format: cell-based
Procedure: (§1) In these experiments, 0.6×10^6 normal human B cells from healthy donors (percent purity between 85-95%) were stimulated with 1 μg/ml sCD40L (Alexis Corporation, Bingham, Nottinghamshire, UK). […] Cells were collected at 0, 20 minutes, 2 hours, 6 hours, 18 hours, and 26 hours. Cleaved Caspase-9, cleaved Caspase-3, cleaved PARP, and β-actin controls were detected in cell lysates by Western blot.
as §1, with “Mcl-1, XIAP, CD40,” for “Cleaved Caspase-9, cleaved Caspase-3, cleaved PARP,”
as §1, with “percent” for “(percent”, “24” for “0, 20 minutes, 2 hours, 6 hours, 18 hours, and 26”, “Cleaved” for “Cleaved Caspase-9, cleaved Caspase-3, cleaved”
as §1, with “22” for “0, 20 minutes, 2 hours, 6 hours, 18 hours, and 26”, “Mcl-1, XIAP,” for “Cleaved Caspase-9, cleaved Caspase-3,”

[2] = system: cancer cells from NHL and CLL patients; test: In vitro CD40 ligand-mediated proliferation of patient cancer cells; format: cell-based, human
Text: (§2) 4, 2003, Nov. 26, 2003, and Apr. 27, 2004, and assigned U.S. Patent Application Nos. 60/517,337 , 60/525,579, and 60/565,710, respectively, and International Patent Application No. PCT/US2004/037152, also entitled “Antagonist Anti-CD40 Monoclonal Antibodies and Methods for Their Use,” filed Nov. 4, 2004; the contents of each of which are herein incorporated by reference in their entirety.

monocytes [3] = test: CD40L-induced cytokine secretion, Meso Scale Discovery multi-array; format: cell-based, human; conditions: 24 hours
Procedure: (§3) Cells (1×10^5 cells per well) were cultured in a 96-well plate in the presence or absence of CD40L ([…], formaldehyde fixed CHO cells, 2×10^5 per well). […] Production of hIL-6, hIL-8, hIL-10, hTNF-α; hGM-CSF, hIL-1b, hIL-12p70, MCP-1, and MIP-1β beta was measured by Meso Scale Discovery® multi-array system (Meso Scale Discovery, Gaithersburg, Md.).

normal B cells = test: as above; format: cell-based, human; conditions: 24 hours; for % inhibition of CD40L-induced MCP-1 secretion / % inhibition of CD40L-induced MIP-1β secretion / % inhibition of CD40L-induced hIL-6 secretion / % inhibition of CD40L-induced hIL-8 secretion / % inhibition of CD40L-induced hIL-10 secretion / % inhibition of CD40L-induced hTNF-α secretion: normal B cells
Procedure: as §3

soluble CD40 = soluble CD40 (Homo sapiens, UniProt P25942); test: ELISA-type assay, binding to soluble CD40; conditions: ELISA-type assays
Text: (§4) 2, 2000, and PCT International Application No. PCT/US01/30857, also titled “Human Anti-CD40 Antibodies,” filed Oct. 2, 2001, both of which are herein incorporated by reference in their entirety.

[4] = system: primary cancer cells from NHL patients; test: ADCC on primary cancer cells; format: cell-based, human; conditions: in vitro
Text: as §2

[5] = system: B cells from normal human subjects; test: In vitro proliferation of normal human B cells / lymphocytes; format: cell-based
Text: as §4, §2

cell-surface CD40 = cell-surface CD40 (Homo sapiens, UniProt P25942); test: Flow cytometric (FACS) assay of CD40 binding and CD40-ligand blocking
Text: as §4

[6] = system: CD40-expressing target cells; test: Antibody dependent cellular cytotoxicity (ADCC); format: cell-based; conditions: native antibodies
Text: as §4
Clones from 7 other hybridomas were identified as having antagonistic activity. Based on their relative antagonistic potency and ADCC activities, two hybridoma clones were selected for further evaluation (Table 1 below). They are named 131.2F8.5.9 (5.9) and 153.8E2.D10.D6.12.12 (12.12).

[7] = target: T1, CD40-TRAF2/3 signaling complex (Homo sapiens, UniProt P25942); test: CD40 immunoprecipitation, TRAF2/TRAF3 Western blot; format: cell-based; conditions: 1 μg/ml sCD40L, 20 minutes
T1 construct: normal human B cells from healthy donors; endogenous in cells; host or cells: normal human B cells from healthy donors
Procedure: In these experiments, 4.0×10^6 normal human B cells from healthy donors (percent purity between 85-95%) were serum starved for four hours in 1% FBS-containing media and stimulated with 1 μg/ml sCD40L (Alexis Corporation, Bingham, Nottinghamshire, UK) for 20 minutes. Cells were collected at 0 and 20 minutes. CD40 was immunoprecipitated using polyclonal anti-CD40 (Santa Cruz Biotechnology, CA), and was probed in a Western blot with anti-TRAF2 mAb (Santa Cruz Biotechnology, CA), anti-TRAF3 mAb (Santa Cruz Biotechnology, CA), and anti-CD40 mAb (Santa Cruz Biotechnology, CA).

monocytes [8] = test: CD40L-induced production of VEGF; format: cell-based
Text: In another experiment, CD40L-induced production of VEGF in monocytes is examined in a manner similar to that described above.

normal human B cells [9] = test: Western blot of XIAP and cleaved PARP without sCD40L stimulation; format: cell-based; conditions: 10 μg/ml antibody, no sCD40L, 0 to 16 hours
Procedure: Cells were collected at 0, 4, 14, and 16 hours. XIAP, cleaved PARP, and β-actin controls were detected in cell lysates by Western blot.

[10] = 1 μg/ml sCD40L, 10 μg/ml antibody, 0 to 26 hours
[11] = 1 μg/ml sCD40L, 0.5, 2 and 10 μg/ml antibody, 22 hours

Chain of cell-surface CD40 (P25942 21-277): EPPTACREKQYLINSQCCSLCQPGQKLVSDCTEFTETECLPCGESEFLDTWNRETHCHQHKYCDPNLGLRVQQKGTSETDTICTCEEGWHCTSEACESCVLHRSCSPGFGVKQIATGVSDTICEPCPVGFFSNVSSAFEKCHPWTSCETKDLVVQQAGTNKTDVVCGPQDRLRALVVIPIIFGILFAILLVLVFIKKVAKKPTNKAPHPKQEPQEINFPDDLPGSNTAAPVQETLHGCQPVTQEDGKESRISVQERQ
T1 sequence (P25942 21-277, one chain of several): as the sequence (P25942 21-277) above
Chain of soluble CD40 (P25942 21-193 limits assumed): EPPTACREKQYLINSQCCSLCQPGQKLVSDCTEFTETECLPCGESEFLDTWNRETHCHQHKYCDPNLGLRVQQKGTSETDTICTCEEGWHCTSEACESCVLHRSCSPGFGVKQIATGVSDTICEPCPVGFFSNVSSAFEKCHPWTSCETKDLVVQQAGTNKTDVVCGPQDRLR

binding to soluble CD40 (soluble CD40): bind soluble CD40
specific binding to human CD40 (cell-surface CD40; FACS analysis): bind specifically to human CD40
CD40 expression [7]: no changes in CD40 expression
Substance: CHIR-12.12: fully human anti-CD40 monoclonal antibody of the IgG1 isotype, hybridoma 153.8E2.D10.D6.12.12, ATCC PTA-5543, SEQ ID NO:2 and 4
cleaved Caspase-9, cleaved Caspase-3, cleaved PARP (normal human B cells [1]; [10]): increased cleavage of Caspase-9, Caspase-3, and PARP; also recorded: resulted in an increase of these cleavage products
expression of Mcl-1 and XIAP over time (normal human B cells [1]; [10]): reduction of XIAP and Mcl-1; also recorded: resulted in a decrease in expression of these proteins
PARP cleavage (normal human B cells [1]; 1 μg/ml sCD40L, 0.01-1.0 μg/ml antibody, 24 hours): increase of PARP cleavage in sCD40L stimulated cells in a dose-dependent manner
Mcl-1 and XIAP expression (normal human B cells [1]; [11]): reduced Mcl-1 and XIAP expression
cleaved PARP expression (normal human B cells [1]; [11]): increased cleaved PARP expression
CD40 ligand-mediated proliferation of cancer cells [2]: inhibiting in vitro CD40 ligand-mediated proliferation of cancer cells from NHL and CLL patients
CD40L-induced production of hIL-10, hTNF-α, hIL-8, hIL-6, MCP-1 and MIP-1β (monocytes [3]; monocytes (n=1), 10 μg/ml): inhibited CD40L-induced monocyte production
% inhibition of CD40L-induced MCP-1 secretion (monocytes [3]; monocytes, Donor 1, 10 μg/ml): 92.6%
% inhibition of CD40L-induced MIP-1β secretion (monocytes [3]; monocytes, Donor 1, 10 μg/ml): 32.4%
% inhibition of CD40L-induced hIL-6 secretion (monocytes [3]; monocytes, Donor 1, 10 μg/ml): 64.9%
% inhibition of CD40L-induced hIL-8 secretion (monocytes [3]; monocytes, Donor 1, 10 μg/ml): 43.7%
% inhibition of CD40L-induced hIL-10 secretion (monocytes [3]; monocytes, Donor 1, 10 μg/ml): 58.5%
% inhibition of CD40L-induced hTNF-α secretion (monocytes [3]; monocytes, Donor 1, 10 μg/ml): 60.1%
cytokine production with antibody alone (agonistic activity) (normal B cells; absence of CD40L, 10 μg/ml): did not produce any of the cytokines above background levels
CD40L-induced production of all cytokines (normal B cells; normal B cells (n=3), 10 μg/ml): inhibited production of all cytokines
% inhibition of CD40L-induced MCP-1 secretion (normal B cells; Donor 1, 10 μg/ml): 55.3%
% inhibition of CD40L-induced MIP-1β secretion (normal B cells; Donor 1, 10 μg/ml): 54.4%
% inhibition of CD40L-induced hIL-6 secretion (normal B cells; Donor 1, 10 μg/ml): 92.2%
% inhibition of CD40L-induced hIL-8 secretion (normal B cells; Donor 1, 10 μg/ml): 98.2%
% inhibition of CD40L-induced hIL-10 secretion (normal B cells; Donor 1, 10 μg/ml): 90.5%
% inhibition of CD40L-induced hTNF-α secretion (normal B cells; Donor 1, 10 μg/ml): 92.8%
% inhibition of CD40L-induced MIP-1β secretion (normal B cells; Donor 2, 10 μg/ml): 92%
% inhibition of CD40L-induced hIL-6 secretion (normal B cells; Donor 2, 10 μg/ml): 99.9%
% inhibition of CD40L-induced hIL-8 secretion (normal B cells; Donor 2, 10 μg/ml): 84.7%
% inhibition of CD40L-induced hTNF-α secretion (normal B cells; Donor 2, 10 μg/ml): 97.4%
% inhibition of CD40L-induced MCP-1 secretion (normal B cells; Donor 3, 10 μg/ml): 25.7%
% inhibition of CD40L-induced MIP-1β secretion (normal B cells; Donor 3, 10 μg/ml): 92.5%
% inhibition of CD40L-induced hIL-6 secretion (normal B cells; Donor 3, 10 μg/ml): 99.3%
% inhibition of CD40L-induced hIL-8 secretion (normal B cells; Donor 3, 10 μg/ml): 99.5%
% inhibition of CD40L-induced hIL-10 secretion (normal B cells; Donor 3, 10 μg/ml): 94.4%
% inhibition of CD40L-induced hTNF-α secretion (normal B cells; Donor 3, 10 μg/ml): 98.5%
killing of primary cancer cells by ADCC [4]: kill primary cancer cells from NHL patients by ADCC
CD40L-induced lymphocyte proliferation ([5]; human peripheral blood lymphocytes): inhibits CD40L-induced lymphocyte proliferation
effect on CD40 ligand-mediated proliferation of normal B cells ([5]; in vitro): act as antagonist anti-CD40 antibodies; also recorded: inhibit in vitro CD40 ligand-mediated proliferation of normal B cells
induction of proliferation of human lymphocytes (agonist activity) ([5]; lymphocytes from normal subjects, antibody alone): do not induce strong proliferation; also recorded: does not induce the proliferation of human peripheral blood lymphocytes
displacement of CD40-ligand pre-bound to cell surface CD40 (cell-surface CD40; flow cytometric assays): displace the pre-bound CD40-ligand; also recorded: can compete off CD40-ligand pre-bound to cell surface CD40
prevention of CD40-ligand binding to cell-surface CD40 (cell-surface CD40; flow cytometric assays): prevent the binding of CD40-ligand to cell-surface CD40; also recorded: can prevent CD40-ligand binding
ADCC activity, killing of CD40-expressing target cells [6]: have ADCC activity; also recorded: able to kill CD40-expressing target cells
formation of the CD40-TRAF2/3 signaling complex [7]: abrogated formation of the CD40-TRAF2/3 signaling complex
CD40L-induced production of VEGF (monocytes [8]): inhibit CD40L-induced production of VEGF
apoptosis (cleaved PARP, XIAP) without sCD40L stimulation (normal human B cells [9]): did not trigger these apoptotic effects; also recorded: does not trigger apoptosis in normal human B cells without CD40L stimulation
